In ChEMBL document CHEMBL1127015, “Centrally acting serotonergic and dopaminergic agents. 1. Synthesis and structure-activity relationships of 2,3,3a,4,5,9b-hexahydro-1H-benz[e]indole derivatives” (J Med Chem, 1993):
Where “and” joins values, the source holds several entries; their conditions need not be identical. Identical values can stand only once.

Key:
[1] = tested on: Mus musculus; experiment: Effective dose on hypothermia in mouse when administered through peroral route; format: functional; conditions: po
[2] = tested on: Felis catus; experiment: Effective dose at which the sympathetic nerve activity (SND) has been reduced to 50% of the pretreatment value in anesthetized cat; format: functional
[3] = tested on: Mus musculus; experiment: Effective dose on hypothermia in mouse when administered subcutaneously; format: functional; conditions: sc
[4] = tested on: Felis catus; experiment: Maximum decrease of arterial blood pressure at sympathetic nerve activity (SND) in anesthetized cat has been observed following 1 mg/kg dose; format: functional; set-up: scale not given: the % may be the effect or the level left
[5] = molecular target: T1, D(2) dopamine receptor (Rattus norvegicus, UniProt P61169); experiment: Inhibitory concentration against [3H]raclopride-labeled dopamine receptor D2 in rat striatum; format: tissue-based
[6] = tested on: Rattus norvegicus; experiment: Inhibition of firing rates of serotonergic neurons in the dorsal raphe nucleus by intravenous injection in rats; format: functional
[7] = tested on: Mus musculus; experiment: Maximum decrease in temperature when compound is administered subcutaneously; format: functional
[8] = tested on: Rattus norvegicus; experiment: Effect on the synthesis rates of dopamine in the rat ventral limbic brain region at 12 micro mol/kg.; format: functional, Limbic system
[9] = tested on: Rattus norvegicus; experiment: Effect on the synthesis rates of serotonin in the rat ventral limbic brain region at 12 micro mol/kg.; format: functional, Limbic system
[10] = tested on: Mus musculus; experiment: Maximum decrease in temperature when compound is administered through peroral route; format: functional
[11] = tested on: Felis catus; experiment: Maximum decrease of sympathetic nerve activity (SND) in anesthetized cat; format: functional; set-up: scale not given: the % may be the effect or the level left
[12] = organism: Felis catus; experiment: Percent of arterial blood pressure at sympathetic nerve activity (SND) dose value was determined; format: functional
[13] = molecular target: T2, D(2) dopamine receptor (Homo sapiens, UniProt P14416); experiment: Binding affinity against [3H]U-86,170-labeled dopamine receptor D2 in cloned CHO cells; format: cell-based
[14] = tested on: Mus musculus; experiment: Antagonism of apomorphine for 10-20 minutes in reserpinized mice when a dose of 38 micro mol/kg is administered intraperitoneally; format: functional
[15] = tested on: Mus musculus; experiment: Antagonism of apomorphine for 0-10 minutes in reserpinized mice when a dose of 38 micro mol/kg is administered intraperitoneally; format: functional
[16] = tested on: Rattus norvegicus; experiment: Inhibition of firing rates of dopaminergic neurons in the substantia nigra pars compacta by intravenous injection in rats.; format: functional; conditions: Rattus norvegicus, Substantia nigra pars compacta, iv; read-out: ED50
[17] = tested on: Mus musculus; experiment: Antagonism of apomorphine effects for 0-10 minutes in reserpinized mice following 0.4 umol/kg i.p.; format: functional; set-up: unit not given beside the values
[18] = tested on: Mus musculus; experiment: Antagonism of apomorphine in reserpinized mice when a dose of 38 micro mol/kg is administered intraperitoneally; format: functional
[19] = tested on: Mus musculus; experiment: Antagonism of apomorphine effects in reserpinized mice following 0.4 umol/kg i.p.; format: functional
[20] = tested on: Mus musculus; experiment: Antagonism of apomorphine in reserpinized mice when a dose of 3.8 micro mol/kg is administered intraperitoneally; format: functional
[21] = tested on: Mus musculus; experiment: Antagonism of apomorphine effects for 10-20 minutes in reserpinized mice following 0.4 umol/kg i.p.; format: functional
[22] = molecular target: T2, D(2) dopamine receptor; experiment: Intrinsic activity from GTP shift using membranes from CHO cells transfected with mammalian dopamine receptor D2.; format: cell membranes
[23] = tested on: Mus musculus; experiment: Ability to stimulate dopaminergic systems by effect on locomotor activity in reserpinized mice when a dose of 3.8 micro mol/kg is administered intraperitoneally; format: functional
[24] = organism: Rattus norvegicus; experiment: Effect on the synthesis rates of serotonin (5-HTP accumulation) in the rat ventral limbic brain region at 3.8uMkg.; format: functional, Limbic system
[25] = tested on: Mus musculus; experiment: Antagonism of apomorphine for 10-20 minutes in reserpinized mice when a dose of 3.8 micro mol/kg is administered intraperitoneally; format: functional
[26] = tested on: Mus musculus; experiment: Ability to stimulate dopaminergic systems by effect on locomotor activity in reserpinized mice when a dose of 38 micro mol/kg is administered intraperitoneally; format: functional
[27] = organism: Rattus norvegicus; experiment: Effect on the synthesis rates of serotonin (5-HTP accumulation) in the rat ventral limbic brain region at 3.8uMkg; format: functional, Limbic system
[28] = tested on: Mus musculus; experiment: Antagonism of apomorphine for 0-10 minutes in reserpinized mice when a dose of 3.8 micro mol/kg is administered intraperitoneally; format: functional
[29] = tested on: Mus musculus; experiment: Increase in locomotor activity in reserpinized mice following 0.4 umol/kg i.p.; format: functional
[30] = organism: Rattus norvegicus; experiment: Effect on the synthesis rates of serotonin (5-HTP accumulation) in the rat ventral limbic brain region at 10.2uMkg.; format: functional, Limbic system
[31] = molecular target: T1, D(2) dopamine receptor; experiment: Binding affinity against [3H]raclopride-labeled dopamine receptor D2 in rat striatum.; format: tissue-based
[32] = molecular target: T1, D(2) dopamine receptor; experiment: Inhibition concentration against [3H]raclopride-labeled dopamine receptor D2 in rat striatum was estimated by single point experiment. compound was run at 1 uM; format: tissue-based
[33] = tested on: Rattus norvegicus; experiment: Effect on the synthesis rates of serotonin in the rat ventral limbic brain region 4.0 micro mol/kg. Values are given as percent change from the control; format: functional, Limbic system
[34] = tested on: Mus musculus; experiment: Effective dose on hypothermia in mouse when administered subcutaneously (95% confidence levels); format: functional; conditions: sc
[35] = tested on: Rattus norvegicus; experiment: Effect on the synthesis rates of dopamine in the rat ventral limbic brain region at 4.0 micro mol/kg. Values are given as percent change from the control (*p<0.05); format: functional, Limbic system
[36] = molecular target: T1, D(2) dopamine receptor; experiment: Compound was evaluated for the binding affinity against [3H]U-86,170-labeled dopamine receptor D2 in cloned CHO cells; format: cell-based
[37] = tested on: Rattus norvegicus; experiment: Effect on the synthesis rates of serotonin in the rat ventral limbic brain region at 2.7 micro mol/kg; format: functional, Limbic system

T2 sequence (P14416 whole entry): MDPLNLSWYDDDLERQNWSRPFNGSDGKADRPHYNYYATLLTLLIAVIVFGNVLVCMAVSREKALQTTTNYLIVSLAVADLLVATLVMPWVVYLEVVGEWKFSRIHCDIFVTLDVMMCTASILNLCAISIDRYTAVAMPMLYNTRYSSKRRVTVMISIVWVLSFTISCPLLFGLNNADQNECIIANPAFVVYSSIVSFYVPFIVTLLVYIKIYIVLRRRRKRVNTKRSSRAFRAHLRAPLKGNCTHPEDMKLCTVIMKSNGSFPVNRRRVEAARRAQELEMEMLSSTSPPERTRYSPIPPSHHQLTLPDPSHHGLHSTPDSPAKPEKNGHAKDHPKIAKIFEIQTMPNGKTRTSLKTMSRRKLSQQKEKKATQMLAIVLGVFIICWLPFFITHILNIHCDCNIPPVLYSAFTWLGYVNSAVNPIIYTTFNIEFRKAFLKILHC
T1 sequence (P61169 whole entry): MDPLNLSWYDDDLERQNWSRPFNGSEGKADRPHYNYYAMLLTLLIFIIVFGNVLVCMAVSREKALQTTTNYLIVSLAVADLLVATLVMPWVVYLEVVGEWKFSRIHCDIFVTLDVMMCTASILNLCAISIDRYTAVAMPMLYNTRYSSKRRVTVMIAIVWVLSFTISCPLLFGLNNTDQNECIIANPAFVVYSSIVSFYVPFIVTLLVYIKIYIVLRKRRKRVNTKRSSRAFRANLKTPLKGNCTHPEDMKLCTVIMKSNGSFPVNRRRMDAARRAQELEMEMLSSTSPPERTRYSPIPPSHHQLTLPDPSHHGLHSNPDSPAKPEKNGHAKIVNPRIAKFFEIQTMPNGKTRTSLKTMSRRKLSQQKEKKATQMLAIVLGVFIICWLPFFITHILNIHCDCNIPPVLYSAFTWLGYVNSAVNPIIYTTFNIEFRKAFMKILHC

Compound: C=CCN1CC[C@H]2c3ccccc3CC[C@H]21 (racemic)
- ED50 [1]: 69 µmol/kg
- ED50 [2]: 0.36 µmol/kg
- ED50 [3]: 22 µmol/kg
- Control [4]: 60%
- IC50 [5]: > 1000 nM
- ED50 [6]: 0.12 µmol/kg
- Max temperature decrease [7]: 4.4
- Control [8]: 20%
- Control [9]: -46%
- Max temperature decrease [10]: 4
- Control [11]: 0%
- BP [12]: 76%

Compound: C=CCN1CC[C@@H]2c3cccc(O)c3CC[C@H]21 (racemic)
- Ki [13]: 4.1 nM
- Locomotor activity [14]: 8
- Locomotor activity [15]: 5
- ED50 [3]: 113 µmol/kg
- ED50 [16]: 0.97 µmol/kg
- Locomotor activity [17]: 65
- Locomotor activity [18]: 6
- Locomotor activity [19]: 109
- Locomotor activity [20]: 67
- Locomotor activity [21]: 83
- Intrinsic activity [22]: 44%
- Max temperature decrease [7]: 2.1
- Locomotor activity [23]: 4
- Control [24]: -12%
- Locomotor activity [25]: 82
- Locomotor activity [26]: 53
- Control [27]: 73%
- Locomotor activity [28]: 29
- Locomotor activity [29]: 12

Compound: COc1cccc2c1CC[C@@H]1[C@H]2CCN1CC1CC1 (racemic)
- Control [30]: -15% and -7%
- Ki [31]: > 10000 nM

Compound: C=CCN1CC[C@@H]2c3ccccc3CC[C@H]21 (racemic)
- Ki [32]: > 1000 nM
- Control [33]: -7%
- ED50 [34]: 45 µmol/kg
- Max temperature decrease [7]: 4.5
- Control [35]: 26%

Compound: C=CCN1CC[C@H]2c3c(O)cccc3CC[C@H]21 (racemic)
- Locomotor activity [14]: 69
- Locomotor activity [15]: 54
- Locomotor activity [17]: 56
- Locomotor activity [18]: 11
- Locomotor activity [19]: 46
- Locomotor activity [20]: 8
- Locomotor activity [21]: 62
- Ki [36]: 153 nM
- Locomotor activity [23]: 63
- Locomotor activity [25]: 68
- Locomotor activity [26]: 32
- Locomotor activity [28]: 78
- Locomotor activity [29]: 135

Compound: C=CCN1CCC2c3cccc(O)c3CC[C@H]21 (single isomer, unassigned; (-))
- Ki [13]: 108 nM
- Locomotor activity [14]: 23
- Locomotor activity [15]: 22
- Locomotor activity [17]: 110
- Locomotor activity [18]: 7
- Locomotor activity [19]: 54
- Locomotor activity [20]: 62
- Ki [31]: 49 nM
- Locomotor activity [21]: 105
- Intrinsic activity [22]: 22%
- Locomotor activity [23]: 8
- Control [24]: -0.3%
- Locomotor activity [25]: 115
- Locomotor activity [26]: 3
- Control [27]: 45%
- Locomotor activity [28]: 97
- Locomotor activity [29]: 73

Compound: O=C(CCCN1CCC(O)(c2ccc(Cl)cc2)CC1)c1ccc(F)cc1 [HALOPERIDOL]
- Control [37]: -7%
